Structures can show the parent of a compound that is named as a salt. Where two headings read alike, the source gives them in different places.
What was measured:
[1] = test system: pupil size; assay: Mydriasis activity test (anticholine activity); assay type: in vivo, Male dd-strain mice; conditions: oral; dose required to double the pupil size 30 minutes after administration
From the text: (§1) In Table 2, Test Nos. 1 and 4 are tests on antiarrhythmic activity and Test No. 3, on anticholine activity and Test No. 5, on side effect. What is meant by the small ratio of Test No. 1 to that of Test No. 3 and the small ratio of Test No. 4 to that of Test No. 5 is that the compound has high therapeutic ratio (wide safety margin).

[2] = test system: chloroform-induced ventricular arrhythmias; assay: Mouse chloroform-induced ventricular arrhythmias test; assay type: in vivo, DD-strain mice; conditions: for Anti-arrhythmic Activity: 100 mg/kg orally, effective when two or more of three examples kept 720 or less heart beat/min for 30 seconds
Description: Antiarrhythmic activity was examined according to mouse chloroform-induced ventricular arrhythmias test.
DD-strain mice weighing 18 -22 g were abstinent from food and water for 4-5 hours and antiarrhythmic activity was examined according to the Block's method [Life Science 28, 2623 (1981)]. Drugs tested were orally administered (100 mg/kg) and the mice were exposed to chloroform. After stop of respiration, electrocardiogram was measured according to standard limb leading method. The case where 720 or less heart beat/min was maintained for 30 seconds was regarded as effective.
The test compound was judged as being effective when two or more examples were effective among three examples.

[3] = test system: left atrium; assay: Reduction of amplitude of myocardial contractile force in excised left atrium; design: species or system Male Hartley-strain guinea pigs
From the text: In Table 2, Test Nos. 1 and 4 are tests on antiarrhythmic activity and Test No. 3, on anticholine activity and Test No. 5, on side effect.

[4] = test system: left atrium; assay: Prolongation of effective refractory period in excised left atrium; design: species or system Male Hartley-strain guinea pigs; conditions: Cavia porcellus; guinea pig left atrium in Krebs-Henseleit solution, 31 ± 1°C; read-out: The concentration required to prolong effective refractory period by 30%
From the text: as §1

[5] = test system: male dd-strain mice; assay: Test for acute toxicity (MLD; LD50); conditions: mouse, in vivo
Description: (§2) Groups of 5 male dd-strain mice weighing 20 ±1 g were used. The test compounds were administered either orally (0.3 mg/kg) or intraperitoneally (0.1 mg/kg).
(§3) The MLD (minimum lethal dose) was determined by observing the mortality for 7 days after the administration.

[6] = Test for acute toxicity (MLD; LD50); conditions: mouse, in vivo
Description: as §2, §3

SMILES | Mydriasis activity test ED100 [1] | Anti-arrhythmic Activity [2] | ED50 ([2]; mouse, oral, read-out: Chloroform-induced ventricular antiarrhythmic activity test ED50) | The concentration required to reduce the amplitude of myocardial contractile force by 30% ([3]; guinea pig left atrium in Krebs-Henseleit solution, 31 ± 1°C) | 5/4 (ratio) ([3]; ratio of Test No. 5 (contractile force) to Test No. 4 (refractory period)) | EC30 [4] | Acute Toxicity MLD i.p. ([5]; ip) | Acute Toxicity MLD p.o. ([5]; po) | LD50 at 72 h ([6]; iv, read-out: Acute toxicity test LD50 iv) | LD50 at 72 h ([6]; po, read-out: Acute toxicity test LD50 po)
CCN(CC)CCNC1c2cc(OC)ccc2OCc2ncccc21 (centres unmarked) [1.5 Fumarate of Compound 1] | 235 mg/kg | Effective | 80 mg/kg | 110 µg/mL | 22.4 | 4.9 µg/mL | more than 100 mg/kg | more than 300 mg/kg | 93 mg/kg | > 1000 mg/kg
CCN(CC)CCNC1c2cc(C)ccc2OCc2ncccc21 (centres unmarked) [5-[2-diethylamino)-ethyl]amino-7-methyl-5,11-dihydro[1]benz-oxepino[3,4-b]pyridine, reference compound] |  | ^*3 Ineffective |  |  |  |  |  |  |  | 

From patent EP0270692A1, “ANTIARRHYTHMIC AGENT” (KYOWA HAKKO KOGYO CO., LTD., priority 1986, dated 1988)
